Source: patent US10610582B2, “Compound and method for vaccination and immunisation” (PCI Biotech AS, priority 2013, dated 2020)
Like-named read-outs stand apart in the source and are kept apart here.

Columns and labels:
[1] = system: IFN-γ; format: in vivo, C57BL/6 mice; conditions: day 14 spleen, 10 μg OVA + labelled TLR ligand + PCI, compared with other groups
[2] = system: IL-2; format: in vivo, C57BL/6 mice; conditions: day 14 spleen, 10 μg OVA + labelled TLR ligand + PCI, compared with other groups
[3] = system: antigen specific CD8 T-cells; format: in vivo, C57BL/6 mice; conditions: 3rd immunisation (day 51) with poly(IC)+PCI after two immunisations with poly(IC) only, group 2
Description: The generation of immunological memory was tested by a 3rd immunisation at day 51 with a poly(IC)+PCI treatment. […]

[4] = system: antigen specific CD8 T-cells (HPV pentamer); test: PCI with HPV short peptide antigen and poly(IC) in normal mice, HPV pentamer flow cytometry (Example 16)
[5] = system: antigen specific CD8 T-cells (HPV pentamer); test: PCI with HPV long peptide antigen and poly(IC) in normal mice, HPV pentamer flow cytometry (Example 15)
[6] = system: antigen specific CD8 T-cells (HPV pentamer); test: PCI with HPV peptide antigen and poly(IC) in normal mice, HPV pentamer flow cytometry (Example 12); conditions: after three immunisations; 50 μg HPV peptide + 10 μg poly(IC) twice, 3rd with poly(IC) + PCI (100 μg TPCS2a + light), group 6
[7] = system: antigen specific CD8 T-cells
[8] = system: OVA-specific CD8 T-cells; test: Vaccination with OVA, Poly(IC) or CpG ODN2395 in mice given OT-1 cells: OVA-specific CD8 T-cells in blood by flow cytometry (Example 3); format: in vivo, C57BL/6 mice; conditions: day 7
Description: One day prior to the immunisation, spleens and lymph nodes were isolated from female OT-1 mice, and erythrocytes were removed by lysis (RBC Lysing Buffer Hybri-Max from Sigma-Aldrich) from the homogenised cell suspensions. […] One day or 8 hours later, mice were bled by tail bleeding, and the blood was collected in heparin-containing tubes for analysis of the baseline frequency of OVA-specific CD8 T cells.
The illumination time was 6 minutes.
At the end of the experiment (day 14), the mice were euthanized and the splenocytes analysed ex vivo.

[9] = system: antigen-specific CD8+ T-cells (TRP-2 pentamer); test: PCI with melanoma antigen peptides (TRP-2 and gp100) and poly(IC) in normal mice, TRP-2 pentamer flow cytometry (Example 6); format: in vivo, C57BL/6 mice; conditions: after 2nd immunisation
[10] = system: antigen specific CD8 T-cells; format: in vivo, C57BL/6 mice; conditions: 200 μg OVA + 10 μg poly(IC) injected 2 h before illumination, TPCS2a 150 μg 18 h before illumination
Description: In all groups TPCS2a was injected 18 h before illumination, while OVA antigen and poly(IC) was either injected 18 h before illumination in a mixture with TPCS2a, or 2 h before illumination as a separate injection. Illumination was for 6 min with the LumiSource illumination device. […]

[11] = system: antigen specific CD8 T-cells; format: in vivo, C57BL/6 mice; conditions: particularly after 2nd immunisation; 200 μg OVA + 50 μg poly(IC) + PCI (150 μg TPCS2a + light), group 5
From the text: The following experimental groups were included:

[12] = HPV short peptide with only the labelled agent (only p(IC) or only PCI) for both immunisations
[13] = 10 μg OVA with the labelled agent alone (50 μg ODN2395 CpG or 50 μg Poly(IC) without PCI; PCI = 150 μg TPCS2a + light without adjuvant)
[14] = TRP-2 + gp100 peptides (50 μg each) with the labelled agent alone (10 μg poly(IC), or PCI = 100 μg TPCS2a + light), vs untreated

| Compound | IFN-γ production in total spleen cells (ELISA) [1] | IL-2 production in total spleen cells (ELISA) [2] | % antigen-specific, CD44+ cells of the total CD8+ cells [3] | % antigen-specific, CD44+ cells of the total CD8+ cells (HPV pentamer) [4, 12] | % antigen-specific, CD44+ cells of the total CD8+ cells (HPV pentamer) ([4]; HPV short peptide, 1st immunisation p(IC)+PCI, 2nd immunisation PCI only, group 6) | % antigen-specific, CD44+ cells of the total CD8+ cells (HPV pentamer) ([4]; after two immunisations, both with 50 μg HPV short peptide + 10 μg p(IC) + PCI (100 μg TPCS2a + light), group 5) | % antigen-specific, CD44+ cells of the total CD8+ cells (HPV pentamer) ([5]; HPV long peptide + 10 μg p(IC) twice, without PCI, group 2) | % antigen-specific, CD44+ cells of the total CD8+ cells (HPV pentamer) ([5]; HPV long peptide, one immunisation with PCI+p(IC), one with only PCI, groups 4 and 5) | % antigen-specific, CD44+ cells of the total CD8+ cells (HPV pentamer) ([5]; after two immunisations, both with 50 μg HPV long peptide + 10 μg p(IC) + PCI (100 μg TPCS2a + light), group 3) | % antigen-specific, CD44+ cells of the total CD8+ cells (HPV pentamer) [6] | % antigen-specific, CD44+ cells of the total CD8+ cells ([7]; 10 μg OVA + poly(IC) (50 μg 1st, 10 μg 2nd) + red light PCI, group 6) | % antigen-specific, CD44+ cells of the total CD8+ cells ([7]; 100 μg OVA + poly(IC) (50 μg 1st, 10 μg 2nd) + red light PCI, group 7, vs antigen alone) | % antigen-specific, CD44+ cells of the total CD8+ cells in blood ([8]; 10 μg OVA + 50 μg labelled adjuvant combined with PCI (150 μg TPCS2a + light)) | % antigen-specific, CD44+ cells of the total CD8+ cells in blood [8, 13] | % antigen-specific, CD44+ cells of the total CD8+ cells (TRP-2 pentamer) [9, 14] | % antigen-specific, CD44+ cells of the total CD8+ cells (TRP-2 pentamer) ([9]; TRP-2 + gp100 peptides + 10 μg poly(IC) + PCI (100 μg TPCS2a + light), group 4) | % antigen-specific, CD44+ cells of the total CD8+ cells [10] | % antigen-specific, CD44+ cells of the total CD8+ cells [11] | % antigen-specific, CD44+ cells of the total CD8+ cells ([7]; 10 μg OVA alone or with red light PCI (150 μg TPCS2a, 652 nm) only, after 1st and 2nd immunisation) |
| --- | --- | --- | --- | --- | --- | --- | --- | --- | --- | --- | --- | --- | --- | --- | --- | --- | --- | --- | --- |
| CCOCc1nc2c(N)nc3ccccc3c2n1CC(C)(C)O [R848, 1-[4-amino-2-(ethoxymethyl)imidazo[4,5-c]quinolin-1-yl]-2-methylpropan-2-ol] | highest | highest |  |  |  |  |  |  |  |  |  |  |  |  |  |  |  |  |  |
| Polyinosine-polycytidylic acid [Poly(IC)] |  |  | did not seem to boost immunisation to any significant degree | no immune response | significant immune response | significant immune response | no effect | weaker, but still significant immune response | strong HPV-specific immune response | HPV-specific immune response was induced | required to achieve an immune response | substantially better | clear synergistic effect | no significant | no significant increase in antigen-specific cells | clear synergistic effect leading to a significant increase in the number of antigen-specific CD8+ T-cells | immune response is enhance | substantially better immunisation than only poly(IC) (group 4) or only PCI (group 3) |  |
| tetraphenyl chlorin disulfonate [PCI] |  |  |  | no immune response |  |  |  |  |  |  |  |  |  | substantially more potent than either of these adjuvants | no significant increase in antigen-specific cells |  |  |  | no immunisation effect |
